Where “and” joins values, the source holds several entries; their conditions need not be identical. Equal values may be shown once. Inconclusive results and toxic doses are left out.
Test system: P388 leukemia ip, CD2F1 mice, survival T/C
Test: NCI In Vivo Anticancer Drug Screen. Data for tumor model P388 Leukemia (intraperitoneal) in CD2F1 (CDF1) mice
Details: endpoint: median survival time, higher = longer survival
Procedure, shortened: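 Mice carrying the transplanted tumor received test compound or vehicle. Survival was recorded in each group, and the value is the treated-group measurement divided by that of the vehicle-treated control group.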

[1] = dose: 25.0 mg/kg/injection, schedule: Q01DX001 (ip), vehicle: Klucel (hydroxypropylcellulose) (HPC)
[2] = dose: 60.0 mg/kg/injection, schedule: Q01DX005 (ip), vehicle: saline with Tween-80
[3] = dose: 120.0 mg/kg/injection, schedule: Q01DX005 (ip), vehicle: saline with Tween-80
[4] = dose: 240.0 mg/kg/injection, schedule: Q01DX005 (ip), vehicle: saline with Tween-80
[5] = dose: 50.0 mg/kg/injection, schedule: Q01DX009 (ip), vehicle: saline
[6] = dose: 100.0 mg/kg/injection, schedule: Q01DX009 (ip), vehicle: saline
[7] = dose: 200.0 mg/kg/injection, schedule: Q01DX009 (ip), vehicle: saline
[8] = dose: 12.5 mg/kg/injection, schedule: Q01DX009 (ip), vehicle: saline with Tween-80
[9] = dose: 25.0 mg/kg/injection, schedule: Q01DX009 (ip), vehicle: saline with Tween-80
[10] = dose: 50.0 mg/kg/injection, schedule: Q01DX009 (ip), vehicle: saline with Tween-80
[11] = dose: 100.0 mg/kg/injection, schedule: Q01DX009 (ip), vehicle: saline with Tween-80

COc1cccc2c1C(=O)c1c(O)c3c(c(O)c1C2=O)C(OC)C(O)(C(C)=O)CC3OC1CC(N)C(O)C(C)O1 (centres undefined)
T/C (dose: 3.13 mg/kg/injection, schedule: Q04DX003 (ip), vehicle: water): 100 % of control | T/C (dose: 6.25 mg/kg/injection, schedule: Q04DX003 (ip), vehicle: water): 100 % of control | T/C (dose: 12.5 mg/kg/injection, schedule: Q04DX003 (ip), vehicle: water): 108 % of control | T/C (dose: 25.0 mg/kg/injection, schedule: Q04DX003 (ip), vehicle: water): 115 % of control | T/C (dose: 50.0 mg/kg/injection, schedule: Q04DX003 (ip), vehicle: water): 115 % of control

N#CC(=Nc1ccc2ccccc2c1)C1=C(O)c2ccccc2C1=O
T/C (dose: 50.0 mg/kg/injection, schedule: Q01DX005 (ip), vehicle: Klucel (hydroxypropylcellulose) (HPC)): 101 % of control | T/C (dose: 100.0 mg/kg/injection, schedule: Q01DX005 (ip), vehicle: Klucel (hydroxypropylcellulose) (HPC)): 101 % of control | T/C (dose: 200.0 mg/kg/injection, schedule: Q01DX005 (ip), vehicle: Klucel (hydroxypropylcellulose) (HPC)): 110 % of control

C[C@]12CCC(=O)C=C1CC[C@@H]1[C@@H]2CC[C@@]2(C)[C@H]1CCCN2CCO
T/C [1]: 99 % of control | T/C (dose: 50.0 mg/kg/injection, schedule: Q01DX001 (ip), vehicle: Klucel (hydroxypropylcellulose) (HPC)): 103 % of control | T/C (dose: 100.0 mg/kg/injection, schedule: Q01DX001 (ip), vehicle: Klucel (hydroxypropylcellulose) (HPC)): 99 % of control and 97 % of control

CCOc1ccc(C(CC)c2cc3c(cc2OCC)OCO3)cc1 (centres undefined)
T/C [2]: 100 % of control | T/C [3]: 111 % of control | T/C [4]: 110 % of control

CC12OC(=O)CC1OC2(c1ccccc1)c1ccccc1 (centres undefined)
T/C [2]: 96 % of control | T/C [3]: 93 % of control | T/C [4]: 90 % of control

CCCC(=O)Nc1ncnc2c1ncn2C1OC2COP(=O)(O)OC2C1OC(=O)CCC (centres undefined)
T/C (dose: 3.13 mg/kg/injection, schedule: Q03HX012 (ip), vehicle: saline): 114 % of control | T/C (dose: 6.25 mg/kg/injection, schedule: Q03HX012 (ip), vehicle: saline): 112 % of control | T/C (dose: 12.5 mg/kg/injection, schedule: Q03HX012 (ip), vehicle: saline): 112 % of control | T/C (dose: 25.0 mg/kg/injection, schedule: Q01DX009 (ip), vehicle: saline): 96 % of control | T/C (dose: 25.0 mg/kg/injection, schedule: Q03HX012 (ip), vehicle: saline): 112 % of control | T/C [5]: 96 % of control | T/C (dose: 50.0 mg/kg/injection, schedule: Q03HX012 (ip), vehicle: saline): 116 % of control | T/C [6]: 96 % of control | T/C (dose: 100.0 mg/kg/injection, schedule: Q03HX012 (ip), vehicle: saline): 108 % of control | T/C [7]: 104 % of control | T/C (dose: 400.0 mg/kg/injection, schedule: Q01DX009 (ip), vehicle: saline): 109 % of control

CCOc1nsc(OCC)n1
T/C [8]: 103 % of control | T/C [9]: 106 % of control | T/C [10]: 106 % of control | T/C [11]: 114 % of control

C/C(=C\Cc1cc(O)cc(C)c1O)CC(=O)CC1(C)CCCC1(C)C(=O)/C=C/C(C)(C)O (centres undefined)
T/C (dose: 1.5 mg/kg/injection, schedule: Q01DX009 (ip), vehicle: saline with Tween-80): 110 % of control | T/C (dose: 3.0 mg/kg/injection, schedule: Q01DX009 (ip), vehicle: saline with Tween-80): 101 % of control | T/C (dose: 6.0 mg/kg/injection, schedule: Q01DX009 (ip), vehicle: saline with Tween-80): 104 % of control | T/C (dose: 12.0 mg/kg/injection, schedule: Q01DX009 (ip), vehicle: saline with Tween-80): 103 % of control

Cc1c2cnccc2c(C)c2c1c1ccccc1n2CC1CO1 (centres undefined)
T/C (dose: 6.25 mg/kg/injection, schedule: Q01DX009 (ip), vehicle: saline with Tween-80): 155 % of control | T/C (dose: 8.0 mg/kg/injection, schedule: Q01DX009 (ip), vehicle: Klucel (hydroxypropylcellulose) (HPC)): 111 % of control | T/C (dose: 11.0 mg/kg/injection, schedule: Q01DX009 (ip), vehicle: saline with Tween-80): 158 % of control | T/C [8]: 152 % of control | T/C (dose: 16.0 mg/kg/injection, schedule: Q04DX003 (ip), vehicle: Klucel (hydroxypropylcellulose) (HPC)): 122 % of control | T/C (dose: 16.5 mg/kg/injection, schedule: Q01DX009 (ip), vehicle: saline with Tween-80): 171 % of control | T/C [9]: 160 % of control and 168 % of control | T/C [10]: 88 % of control | T/C (dose: 128.0 mg/kg/injection, schedule: Q04DX003 (ip), vehicle: Klucel (hydroxypropylcellulose) (HPC)): 159 % of control

CCOC(=O)CC(=O)N(CC)CC
T/C [11]: 104 % of control | T/C (dose: 200.0 mg/kg/injection, schedule: Q01DX009 (ip), vehicle: saline with Tween-80): 100 % of control | T/C (dose: 400.0 mg/kg/injection, schedule: Q01DX009 (ip), vehicle: saline with Tween-80): 95 % of control

Nc1cc2c3cccnc3ccc2c2ncccc12
T/C (dose: 100.0 mg/kg/injection, schedule: Q01DX001 (ip), vehicle: saline with Tween-80): 94 % of control | T/C (dose: 200.0 mg/kg/injection, schedule: Q01DX001 (ip), vehicle: saline with Tween-80): 89 % of control | T/C (dose: 400.0 mg/kg/injection, schedule: Q01DX001 (ip), vehicle: saline with Tween-80): 95 % of control

CC(C)=CCC(OC(=O)C=C(C)C)c1cc(O)c2c(O)ccc(O)c2c1O.[Cu] (centres undefined)
T/C (dose: 100.0 mg/kg/injection, schedule: Q04DX002 (ip), vehicle: saline with Tween-80): 101 % of control | T/C (dose: 200.0 mg/kg/injection, schedule: Q04DX002 (ip), vehicle: saline with Tween-80): 104 % of control

O=C1Nc2ccccc2/C1=N/N1C(=O)CSC1=S
T/C (dose: 0.93 mg/kg/injection, schedule: Q01DX005 (ip), vehicle: Klucel (hydroxypropylcellulose) (HPC)): 97 % of control | T/C (dose: 1.87 mg/kg/injection, schedule: Q01DX005 (ip), vehicle: Klucel (hydroxypropylcellulose) (HPC)): 94 % of control | T/C (dose: 3.75 mg/kg/injection, schedule: Q01DX005 (ip), vehicle: Klucel (hydroxypropylcellulose) (HPC)): 88 % of control

CN1CCC(O)CC1C(=O)O (centres undefined)
T/C [5]: 98 % of control | T/C [6]: 104 % of control | T/C [7]: 105 % of control

Cc1ccc(S(=O)(=O)OC2CCCCC2c2ccccc2)cc1 (centres undefined)
T/C (dose: 6.25 mg/kg/injection, schedule: Q01DX001 (ip), vehicle: Klucel (hydroxypropylcellulose) (HPC)): 102 % of control | T/C (dose: 12.5 mg/kg/injection, schedule: Q01DX001 (ip), vehicle: Klucel (hydroxypropylcellulose) (HPC)): 116 % of control and 98 % of control | T/C [1]: 102 % of control and 90 % of control

CC(CO)/[N+]([O-])=N/O (centres undefined)
T/C (dose: 6.0 mg/kg/injection, schedule: Q01DX005 (ip), vehicle: Klucel (hydroxypropylcellulose) (HPC)): 95 % of control | T/C (dose: 12.0 mg/kg/injection, schedule: Q01DX005 (ip), vehicle: Klucel (hydroxypropylcellulose) (HPC)): 94 % of control | T/C (dose: 24.0 mg/kg/injection, schedule: Q01DX005 (ip), vehicle: Klucel (hydroxypropylcellulose) (HPC)): 100 % of control | T/C (dose: 48.0 mg/kg/injection, schedule: Q01DX005 (ip), vehicle: Klucel (hydroxypropylcellulose) (HPC)): 100 % of control

COc1cccc2c1C(=O)c1c(O)c3c(c(O)c1C2=O)C[C@@](O)(C(C)O)C[C@@H]3OC1CC(N2CCOCC2)C(O)C(C)O1 (some centres undefined)
T/C (dose: 25.0 micrograms/kg/injection, schedule: Q04DX003 (ip), vehicle: water): 101 % of control | T/C (dose: 50.0 micrograms/kg/injection, schedule: Q04DX003 (ip), vehicle: water): 97 % of control | T/C (dose: 100.0 micrograms/kg/injection, schedule: Q04DX003 (ip), vehicle: water): 100 % of control and 118 % of control

CCOC(=O)C1C(=O)NN(/C=C2\C=CC=CC2=O)C1c1ccc([N+](=O)[O-])cc1 (centres undefined)
T/C (dose: 100.0 mg/kg/injection, schedule: Q04DX002 (ip), vehicle: saline): 111 % of control | T/C (dose: 200.0 mg/kg/injection, schedule: Q04DX002 (ip), vehicle: saline): 93 % of control | T/C (dose: 400.0 mg/kg/injection, schedule: Q04DX002 (ip), vehicle: saline): 98 % of control

COc1cc(/C=C/CO)cc(OC)c1OC1OC(CO)C(O)C(O)C1O (centres undefined)
T/C (dose: 10.0 mg/kg/injection, schedule: Q01DX009 (ip), vehicle: saline + alcohol): 100 % of control | T/C (dose: 20.0 mg/kg/injection, schedule: Q01DX009 (ip), vehicle: saline + alcohol): 110 % of control | T/C (dose: 40.0 mg/kg/injection, schedule: Q01DX009 (ip), vehicle: saline + alcohol): 97 % of control | T/C (dose: 80.0 mg/kg/injection, schedule: Q01DX009 (ip), vehicle: saline + alcohol): 100 % of control

COC(=O)c1c(COC(=O)NC(C)C)c2n(c1C)CS(=O)(=O)C2
T/C (dose: 12.5 mg/kg/injection, schedule: Q01DX005 (ip), vehicle: saline with Tween-80): 96 % of control | T/C (dose: 25.0 mg/kg/injection, schedule: Q01DX005 (ip), vehicle: saline with Tween-80): 95 % of control | T/C (dose: 50.0 mg/kg/injection, schedule: Q01DX005 (ip), vehicle: saline with Tween-80): 92 % of control

— PubChem BioAssay AID330 (DTP/NCI, 2004)
